Experimental data reported in ChEMBL document CHEMBL1134911, “Nodulisporic acid B, B1, and B2: a series of 1'-deoxy-nodulisporic acids from Nodulisporium sp” (Bioorg Med Chem Lett, 2002).

Tests used:
Settings in all cases: pulicinae; call rule not given here
[1] = Lethal dose was evaluated against flea; NA means not active at 100 ppm; format: ADME
[2] = Lethal dose was evaluated against flea
[3] = Lethal dose was evaluated against flea; partial activity; format: ADME

## C=C(C)[C@H]1Cc2c3c(cc4c2N1C(=O)[C@@]1(C)[C@@H](CC[C@H]2[C@](C)(/C=C/C=C(\C)C(=O)OC)[C@@H](O)CC[C@@]21C)CC4=O)C1=CC(C)(C)OC(C)(C)[C@H]1[C@@H]3O
[1]
  LD90: Not Active

## C=C(C)[C@H]1Cc2c3c(cc4c5c(n1c24)[C@@]1(C)[C@@H](CC[C@@H]2[C@]1(C)CC[C@]1(O)O[C@H](C(O)C(C)C(=O)[O-])C[C@@]21C)C5)C1=CC(C)(C)OC(C)(C)[C@H]1[C@@H]3O.[Na+] (stereo partly specified)
[1]
  LD90: Not Active

## C=C(C)[C@H]1Cc2c3c(cc4c5c(n1c24)[C@@]1(C)[C@@H](CC[C@H]2[C@](C)(/C=C/C=C(\C)C(=O)OC)[C@@H](O)CC[C@@]21C)C5)C1=CC(C)(C)OC(C)(C)[C@H]1[C@@H]3O
[2]
  LD90: 100 p.p.m.
[3]
  LD90: 10 p.p.m.

## C=C(C)[C@H]1C(=O)c2c3c(cc4c5c(n1c24)[C@@]1(C)[C@@H](CC[C@H]2[C@](C)(/C=C/C=C(\C)C(=O)OC)[C@@H](O)CC[C@@]21C)C5)C1=CC(C)(C)OC(C)(C)[C@H]1[C@@H]3O
[2]
  LD90: 10 p.p.m.

## C=C(C)[C@H]1Cc2c3c(cc4c5c(n1c24)[C@@]1(C)[C@@H](CC[C@@H]2[C@]1(C)CC[C@]1(O)O[C@H](/C=C(\C)C(=O)[O-])C[C@@]21C)C5)C1=CC(C)(C)OC(C)(C)[C@H]1[C@@H]3O.[Na+]
[1]
  LD90: Not Active

## C=C(C)[C@H]1Cc2c3c(cc4c5c(n1c24)[C@@]1(C)[C@@H](CC[C@H]2[C@](C)(/C=C/C=C(\C)C(=O)[O-])[C@@H](O)CC[C@@]21C)C5)C1=CC(C)(C)OC(C)(C)[C@H]1[C@@H]3O.[Na+]
[2]
  LD90: 100 p.p.m.

## C=C(C)[C@H]1C(=O)c2c3c(cc4c5c(n1c24)[C@@]1(C)C(CC[C@H]2[C@](C)(/C=C/C=C(\C)C(=O)O)[C@@H](O)CC[C@@]21C)C5)C1=CC(C)(C)OC(C)(C)C1[C@@H]3O (stereo partly specified) [NOD ACID A]
[2]
  LD90: 1 p.p.m.

## C=C(C)[C@H]1C(=O)c2c3c(cc4c5c(n1c24)[C@@]1(C)[C@@H](CC[C@@H]2[C@]1(C)CC[C@]1(O)O[C@H](/C=C(\C)C(=O)O)C[C@@]21C)C5)C1=CC(C)(C)OC(C)(C)[C@H]1[C@@H]3O [NODULISPORIC ACID A1]
[2]
  LD90: 5 p.p.m.

## C=C(C)[C@H]1C(=O)c2c3c(cc4c5c(n1c24)[C@@]1(C)[C@@H](CC[C@@H]2[C@]1(C)CC[C@]1(O)O[C@H](C(O)C(C)C(=O)O)C[C@@]21C)C5)C1=CC(C)(C)OC(C)(C)[C@H]1[C@@H]3O (stereo partly specified) [NODULISPORIC ACID A2]
[2]
  LD90: 10 p.p.m.

## IVERMECTIN
[2]
  LD90: 10 p.p.m.
